Measured values from ChEMBL document CHEMBL4507262, “Data for DCP probe A-1596586” (2021).

Tests used:
[1] = target: MAO-B (amine oxidase [flavin-containing] B) (Homo sapiens, UniProt P27338); assay: MAO-B (h) recombinant enzyme Eurofins-Cerep enzyme and uptake assay; set-up: incubation time 60 min, incubation temperature 37°C, substrate/stimulus/tracer D-Luciferin derivative (4 µM); details: probe D-Luciferin derivative (4 µM), compound concentration 10 uM, read-out: % Inhibition of Control Values (Mean n=2)
[2] = target: Adenosine receptor A3 (Homo sapiens) (UniProt P0DMS8); assay: A3 (h) Eurofins-Cerep binding assay; set-up: ligand concentration 0.15 nM; details: filed as agonist, Compound concentration 10.0 uM
[3] = target: Calcitonin-gene-related peptide receptor, CALCRL/RAMP1 (Homo sapiens) (UniProt O60894+Q16602); assay: CGRP (h) Eurofins-Cerep binding assay; assay type: protein-complex assay; set-up: ligand concentration 0.03 nM; details: filed as agonist, Compound concentration 10.0 uM
[4] = target: GABA-A receptor; alpha-1/beta-2/gamma-2 (Homo sapiens) (UniProt P14867+P47870+P18507); assay: GABAA1 (h) (alpha1,beta2,gamma2) Eurofins-Cerep binding assay; assay type: protein-complex assay; set-up: ligand concentration 15 nM; details: filed as agonist, Compound concentration 10.0 uM
[5] = target: Kappa-type opioid receptor (Homo sapiens) (UniProt P41145); assay: kappa (h) (KOP) Eurofins-Cerep binding assay; set-up: ligand concentration 0.5 nM; details: filed as agonist, Compound concentration 10.0 uM
[6] = target: 5-hydroxytryptamine receptor 2B (Homo sapiens) (UniProt P41595); assay: 5-HT2B (h) Eurofins-Cerep binding assay; set-up: ligand concentration 0.2 nM; details: filed as agonist, Compound concentration 10.0 uM
[7] = target: Sulfonylurea receptors; K-ATP channels (Rattus norvegicus) (UniProt Q63563+P70673+Q63664+Q09429); assay: KATP channel Eurofins-Cerep binding assay; assay type: protein-complex assay; set-up: ligand concentration 0.1 nM; details: filed as antagonist, Compound concentration 10.0 uM
[8] = target: T1, GABA-A receptor; anion channel (Rattus norvegicus) (UniProt O09028+P15431+P18506+P18508+P19969+P20236+P23574+P23576+P28471+P28473+P30191+P62813+P63079+P63138+Q91ZM7+Q9ES14); assay: Cl- channel (GABA-gated) Eurofins-Cerep binding assay; assay type: protein-complex assay; set-up: ligand concentration 3 nM; details: filed as antagonist, Compound concentration 10.0 uM
[9] = target: Tyrosine-protein kinase ABL1 (Homo sapiens) (UniProt P00519); details: Compound concentration 1000.0 nM
[10] = target: Activin receptor type-2A (Homo sapiens) (UniProt P27037); details: Compound concentration 1000.0 nM
[11] = target: Cytoplasmic tyrosine-protein kinase BMX (Homo sapiens) (UniProt P51813); details: Compound concentration 1000.0 nM
[12] = target: Serine/threonine-protein kinase B-raf (Homo sapiens) (UniProt P15056); details: Compound concentration 1000.0 nM
[13] = target: Calcium/calmodulin-dependent protein kinase type II subunit gamma (Homo sapiens) (UniProt Q13555); details: Compound concentration 1000.0 nM
[14] = target: Peripheral plasma membrane protein CASK (Homo sapiens) (UniProt O14936); details: Compound concentration 1000.0 nM
[15] = target: Cyclin-dependent kinase 11B (Homo sapiens) (UniProt P21127); details: Compound concentration 1000.0 nM
[16] = target: Dual specificity tyrosine-phosphorylation-regulated kinase 2 (Homo sapiens) (UniProt Q92630); details: Compound concentration 1000.0 nM
[17] = tested on: Epidermal growth factor receptor (Homo sapiens), P00533 [G719C]; details: Compound concentration 1000.0 nM
[18] = target: Ephrin type-A receptor 3 (Homo sapiens) (UniProt P29320); details: Compound concentration 1000.0 nM
[19] = target: Ephrin type-B receptor 3 (Homo sapiens) (UniProt P54753); details: Compound concentration 1000.0 nM
[20] = target: Mitogen-activated protein kinase 1 (Homo sapiens) (UniProt P28482); details: Compound concentration 1000.0 nM
[21] = target: Tyrosine-protein kinase Fes/Fps (Homo sapiens) (UniProt P07332); details: Compound concentration 1000.0 nM
[22] = target: Tyrosine-protein kinase Fyn (Homo sapiens) (UniProt P06241); details: Compound concentration 1000.0 nM
Tyrosine-protein kinase Fyn (Homo sapiens), sequence (P06241 2-537 limits assumed): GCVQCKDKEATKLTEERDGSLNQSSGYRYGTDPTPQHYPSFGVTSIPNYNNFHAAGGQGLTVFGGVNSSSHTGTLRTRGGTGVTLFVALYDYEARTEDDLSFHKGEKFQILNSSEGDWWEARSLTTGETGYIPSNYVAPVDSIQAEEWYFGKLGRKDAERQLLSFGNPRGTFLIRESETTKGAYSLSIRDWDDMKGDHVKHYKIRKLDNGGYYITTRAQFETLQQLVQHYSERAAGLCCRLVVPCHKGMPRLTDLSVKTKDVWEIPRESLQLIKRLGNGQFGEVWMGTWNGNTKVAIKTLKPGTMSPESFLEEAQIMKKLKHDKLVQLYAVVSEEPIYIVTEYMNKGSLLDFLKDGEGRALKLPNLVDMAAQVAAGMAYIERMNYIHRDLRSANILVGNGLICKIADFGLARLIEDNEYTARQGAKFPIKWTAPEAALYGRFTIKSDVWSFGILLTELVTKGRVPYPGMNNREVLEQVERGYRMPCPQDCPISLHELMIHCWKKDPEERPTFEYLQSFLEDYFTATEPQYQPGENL

[23] = target: Glycogen synthase kinase-3 alpha (Homo sapiens) (UniProt P49840); details: Compound concentration 1000.0 nM
[24] = target: Mitogen-activated protein kinase kinase kinase kinase 1 (Homo sapiens) (UniProt Q92918); details: Compound concentration 1000.0 nM
[25] = target: Insulin-like growth factor 1 receptor (Homo sapiens) (UniProt P08069); details: Compound concentration 1000.0 nM
[26] = target: Insulin receptor-related protein (Homo sapiens) (UniProt P14616); details: Compound concentration 1000.0 nM
Insulin receptor-related protein (Homo sapiens), sequence (P14616 27-742 limits assumed): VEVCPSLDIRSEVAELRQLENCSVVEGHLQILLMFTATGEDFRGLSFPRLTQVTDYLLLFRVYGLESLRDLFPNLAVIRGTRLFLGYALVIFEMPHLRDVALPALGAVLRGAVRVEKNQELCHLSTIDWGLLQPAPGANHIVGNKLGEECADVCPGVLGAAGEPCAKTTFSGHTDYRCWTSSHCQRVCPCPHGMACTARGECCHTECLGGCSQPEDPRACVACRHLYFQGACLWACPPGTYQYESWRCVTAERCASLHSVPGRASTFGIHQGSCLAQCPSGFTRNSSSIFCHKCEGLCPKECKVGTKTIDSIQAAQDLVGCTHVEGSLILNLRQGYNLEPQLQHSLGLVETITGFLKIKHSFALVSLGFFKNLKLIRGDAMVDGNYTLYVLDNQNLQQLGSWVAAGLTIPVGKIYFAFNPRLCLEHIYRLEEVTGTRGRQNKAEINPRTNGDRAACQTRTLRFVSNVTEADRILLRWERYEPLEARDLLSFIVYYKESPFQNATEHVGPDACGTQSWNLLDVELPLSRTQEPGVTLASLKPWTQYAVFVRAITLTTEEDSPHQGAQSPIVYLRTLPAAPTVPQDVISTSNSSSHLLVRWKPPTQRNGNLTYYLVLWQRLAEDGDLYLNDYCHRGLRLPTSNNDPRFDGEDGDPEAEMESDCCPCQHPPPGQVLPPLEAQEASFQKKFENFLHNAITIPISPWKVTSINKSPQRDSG
Insulin receptor-related protein (Homo sapiens), sequence (P14616 747-1297 limits assumed): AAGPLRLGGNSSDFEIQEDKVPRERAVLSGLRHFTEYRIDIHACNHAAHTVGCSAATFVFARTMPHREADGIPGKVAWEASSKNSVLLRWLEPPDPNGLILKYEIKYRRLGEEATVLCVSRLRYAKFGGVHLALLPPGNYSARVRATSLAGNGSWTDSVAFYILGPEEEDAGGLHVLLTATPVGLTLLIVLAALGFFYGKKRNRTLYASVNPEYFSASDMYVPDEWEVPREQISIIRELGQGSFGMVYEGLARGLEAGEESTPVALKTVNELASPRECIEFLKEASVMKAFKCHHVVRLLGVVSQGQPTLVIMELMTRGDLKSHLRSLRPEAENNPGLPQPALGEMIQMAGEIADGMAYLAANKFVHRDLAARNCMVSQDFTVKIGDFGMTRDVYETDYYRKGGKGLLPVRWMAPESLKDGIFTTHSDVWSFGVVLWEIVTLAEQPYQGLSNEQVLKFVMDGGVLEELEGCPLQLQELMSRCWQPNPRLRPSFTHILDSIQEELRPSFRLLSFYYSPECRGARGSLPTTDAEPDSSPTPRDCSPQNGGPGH

[27] = target: Tyrosine-protein kinase ITK/TSK (Homo sapiens) (UniProt Q08881); details: Compound concentration 1000.0 nM
[28] = tested on: Mast/stem cell growth factor receptor Kit (Homo sapiens), P10721 [L576P]; details: Compound concentration 1000.0 nM
[29] = target: Serine/threonine-protein kinase LATS1 (Homo sapiens) (UniProt O95835); details: Compound concentration 1000.0 nM
[30] = target: MAP kinase-activated protein kinase 2 (Homo sapiens) (UniProt P49137); details: Compound concentration 1000.0 nM
[31] = target: Dual specificity mitogen-activated protein kinase kinase 2 (Homo sapiens) (UniProt P36507); details: Compound concentration 1000.0 nM
[32] = target: Dual specificity mitogen-activated protein kinase kinase 4 (Homo sapiens) (UniProt P45985); details: Compound concentration 1000.0 nM
[33] = tested on: Hepatocyte growth factor receptor (Homo sapiens), P08581 [Y1235D]; details: Compound concentration 1000.0 nM
[34] = target: MAP kinase-interacting serine/threonine-protein kinase 1 (Homo sapiens) (UniProt Q9BUB5); details: Compound concentration 1000.0 nM
[35] = target: Muscle, skeletal receptor tyrosine-protein kinase (Homo sapiens) (UniProt O15146); details: Compound concentration 1000.0 nM
Muscle, skeletal receptor tyrosine-protein kinase (Homo sapiens), sequence (O15146 whole entry, canonical isoform): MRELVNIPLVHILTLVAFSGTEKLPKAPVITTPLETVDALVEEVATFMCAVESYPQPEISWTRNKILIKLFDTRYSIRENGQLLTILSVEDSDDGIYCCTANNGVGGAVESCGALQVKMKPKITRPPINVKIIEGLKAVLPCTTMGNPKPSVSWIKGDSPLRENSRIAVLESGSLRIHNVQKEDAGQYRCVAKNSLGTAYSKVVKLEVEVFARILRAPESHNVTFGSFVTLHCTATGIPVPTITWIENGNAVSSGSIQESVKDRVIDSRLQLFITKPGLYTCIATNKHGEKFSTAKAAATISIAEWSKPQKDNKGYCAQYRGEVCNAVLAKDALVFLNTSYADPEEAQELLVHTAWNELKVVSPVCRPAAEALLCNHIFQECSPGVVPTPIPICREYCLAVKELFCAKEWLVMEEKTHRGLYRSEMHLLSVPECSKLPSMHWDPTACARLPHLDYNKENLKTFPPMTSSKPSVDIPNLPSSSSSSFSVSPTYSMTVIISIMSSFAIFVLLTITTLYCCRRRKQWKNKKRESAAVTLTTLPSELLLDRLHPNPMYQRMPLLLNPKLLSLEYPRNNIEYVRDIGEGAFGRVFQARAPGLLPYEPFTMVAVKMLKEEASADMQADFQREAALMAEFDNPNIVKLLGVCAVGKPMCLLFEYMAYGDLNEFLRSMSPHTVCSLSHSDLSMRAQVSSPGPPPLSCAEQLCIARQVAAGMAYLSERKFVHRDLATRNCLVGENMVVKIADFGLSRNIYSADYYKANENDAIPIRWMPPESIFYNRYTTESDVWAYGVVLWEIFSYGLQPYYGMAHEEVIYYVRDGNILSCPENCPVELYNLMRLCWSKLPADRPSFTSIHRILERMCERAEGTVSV

[36] = tested on: Phosphatidylinositol 4,5-bisphosphate 3-kinase catalytic subunit alpha isoform (Homo sapiens), P42336 [E545A]; details: Compound concentration 1000.0 nM
Phosphatidylinositol 4,5-bisphosphate 3-kinase catalytic subunit alpha isoform (Homo sapiens), P42336 [E545A], sequence (P42336 whole entry E545A, canonical isoform): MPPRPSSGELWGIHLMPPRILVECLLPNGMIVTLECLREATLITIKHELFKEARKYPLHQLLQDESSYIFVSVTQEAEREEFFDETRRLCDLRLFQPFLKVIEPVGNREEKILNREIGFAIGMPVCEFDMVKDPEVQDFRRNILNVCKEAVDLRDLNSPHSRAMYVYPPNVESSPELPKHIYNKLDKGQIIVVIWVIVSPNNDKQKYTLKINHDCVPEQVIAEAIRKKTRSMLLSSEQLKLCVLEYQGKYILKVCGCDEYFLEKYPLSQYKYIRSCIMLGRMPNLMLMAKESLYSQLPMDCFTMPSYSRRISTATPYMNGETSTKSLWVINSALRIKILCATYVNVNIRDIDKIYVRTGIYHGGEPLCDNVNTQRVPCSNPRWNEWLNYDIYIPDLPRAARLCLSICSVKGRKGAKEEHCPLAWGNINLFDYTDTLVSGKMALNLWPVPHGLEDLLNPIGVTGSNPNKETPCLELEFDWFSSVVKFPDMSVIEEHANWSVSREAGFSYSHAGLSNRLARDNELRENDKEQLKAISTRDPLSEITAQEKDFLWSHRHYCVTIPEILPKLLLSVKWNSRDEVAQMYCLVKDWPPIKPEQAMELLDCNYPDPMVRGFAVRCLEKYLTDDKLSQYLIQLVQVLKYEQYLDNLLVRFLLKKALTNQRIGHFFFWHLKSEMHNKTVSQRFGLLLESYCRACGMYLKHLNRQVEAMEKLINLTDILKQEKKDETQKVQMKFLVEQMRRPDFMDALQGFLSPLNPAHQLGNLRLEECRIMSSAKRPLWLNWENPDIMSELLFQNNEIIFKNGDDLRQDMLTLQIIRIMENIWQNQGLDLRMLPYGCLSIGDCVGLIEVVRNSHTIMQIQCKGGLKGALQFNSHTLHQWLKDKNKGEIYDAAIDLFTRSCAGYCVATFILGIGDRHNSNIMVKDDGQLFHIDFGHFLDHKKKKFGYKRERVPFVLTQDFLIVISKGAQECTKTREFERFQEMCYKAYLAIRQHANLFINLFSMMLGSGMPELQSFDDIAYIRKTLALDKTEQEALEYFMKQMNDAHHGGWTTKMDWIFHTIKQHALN

[37] = target: High affinity nerve growth factor receptor (Homo sapiens) (UniProt P04629); details: Compound concentration 1000.0 nM
High affinity nerve growth factor receptor (Homo sapiens), sequence (P04629 33-796 limits assumed): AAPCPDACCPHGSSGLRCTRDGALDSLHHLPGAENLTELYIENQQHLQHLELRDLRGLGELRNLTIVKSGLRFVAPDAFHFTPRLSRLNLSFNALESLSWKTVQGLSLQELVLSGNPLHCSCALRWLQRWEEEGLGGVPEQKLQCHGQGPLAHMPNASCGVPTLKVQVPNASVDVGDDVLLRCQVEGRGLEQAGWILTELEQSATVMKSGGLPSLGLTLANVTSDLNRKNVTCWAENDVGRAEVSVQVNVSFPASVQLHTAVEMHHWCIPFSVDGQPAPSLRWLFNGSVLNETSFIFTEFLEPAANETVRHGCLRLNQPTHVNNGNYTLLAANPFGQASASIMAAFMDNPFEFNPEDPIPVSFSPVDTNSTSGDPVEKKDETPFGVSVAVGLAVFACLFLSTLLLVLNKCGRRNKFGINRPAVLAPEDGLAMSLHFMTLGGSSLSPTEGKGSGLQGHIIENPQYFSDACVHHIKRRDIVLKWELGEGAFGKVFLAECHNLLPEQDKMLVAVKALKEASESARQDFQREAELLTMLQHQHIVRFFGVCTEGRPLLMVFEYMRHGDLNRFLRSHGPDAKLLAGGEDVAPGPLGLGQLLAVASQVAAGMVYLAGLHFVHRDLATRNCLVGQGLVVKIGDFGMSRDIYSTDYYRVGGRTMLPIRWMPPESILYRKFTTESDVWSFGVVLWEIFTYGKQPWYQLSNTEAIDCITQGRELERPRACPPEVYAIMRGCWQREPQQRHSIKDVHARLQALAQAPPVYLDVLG

[38] = target: BDNF/NT-3 growth factors receptor (Homo sapiens) (UniProt Q16620); details: Compound concentration 1000.0 nM
[39] = target: Serine/threonine-protein kinase 32A (Homo sapiens) (UniProt Q8WU08); details: Compound concentration 1000.0 nM
Serine/threonine-protein kinase 32A (Homo sapiens), sequence (Q8WU08 whole entry): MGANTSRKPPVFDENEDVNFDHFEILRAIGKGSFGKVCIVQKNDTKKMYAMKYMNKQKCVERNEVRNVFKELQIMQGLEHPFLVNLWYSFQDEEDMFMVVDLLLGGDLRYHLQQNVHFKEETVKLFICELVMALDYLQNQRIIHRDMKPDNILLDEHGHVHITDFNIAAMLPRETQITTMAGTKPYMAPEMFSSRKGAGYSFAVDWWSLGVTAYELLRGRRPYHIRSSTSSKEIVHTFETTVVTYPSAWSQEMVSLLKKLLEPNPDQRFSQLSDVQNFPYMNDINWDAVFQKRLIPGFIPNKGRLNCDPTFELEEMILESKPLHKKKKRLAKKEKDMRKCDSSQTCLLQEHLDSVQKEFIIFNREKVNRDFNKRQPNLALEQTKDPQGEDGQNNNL

[40] = target: T1, GABA-A receptor; anion channel (Rattus norvegicus); details: Compound concentration 10.0 uM

Row | SMILES | inhibition at 60 min, 10 µM [1] [%] | % Inhibition of Control Specific Binding (Mean n=2) [2] [%] | % Inhibition of Control Specific Binding (Mean n=2) [3] [%] | % Inhibition of Control Specific Binding (Mean n=2) [4] [%] | % Inhibition of Control Specific Binding (Mean n=2) [5] [%] | % Inhibition of Control Specific Binding (Mean n=2) [6] [%] | % Inhibition of Control Specific Binding (Mean n=2) [7] [%] | % Inhibition of Control Specific Binding (Mean n=2) [8] [%] | residual activity [9] [%] | residual activity [10] [%] | residual activity [11] [%] | residual activity [12] [%] | residual activity [13] [%] | residual activity [14] [%] | residual activity [15] [%] | residual activity [16] [%] | residual activity [17] [%] | residual activity [18] [%] | residual activity [19] [%] | residual activity [20] [%] | further results
1 | COc1ccc2c(c1)O[C@@H](c1ccc(OC)c(OC)c1)C[C@H]2NC(=O)C1(c2ccc3c(c2)OC(F)(F)O3)CC1 [A-1596586] | 11.9 | 63.9 | -7 | -27.5 | 42.2 | 8.5 | -1.9 | 57.7 | 86 | 90 | 91 | 100 | 96 | 100 | 100 | 75 | 96 | 91 | 90 | 100 | residual activity [21]: 93%; residual activity [22]: 96%; residual activity [23]: 100%; residual activity [24]: 90%; residual activity [25]: 90%; residual activity [26]: 100%; residual activity [27]: 86%; residual activity [28]: 92%; residual activity [29]: 92%; residual activity [30]: 100%; residual activity [31]: 87%; residual activity [32]: 92%; residual activity [33]: 100%; residual activity [34]: 78%; residual activity [35]: 94%; residual activity [36]: 94%; residual activity [37]: 100%; residual activity [38]: 91%; residual activity [39]: 100%; inhibition [40]: 11.1%
2 | COc1ccc2c(c1)O[C@H](c1ccc(OC)c(OC)c1)C[C@@H]2NC(=O)C1(c2ccc3c(c2)OC(F)(F)O3)CC1 [A-1596584] | 16.7 | 67.7 | -2.5 | -86.2 | 44.7 | -14.6 | 5.1 | 82.4 | 100 | 97 | 100 | 92 | 100 | 85 | 100 | 100 | 100 | 100 | 91 | 99 | residual activity [21]: 97%; residual activity [22]: 100%; residual activity [23]: 100%; residual activity [24]: 98%; residual activity [25]: 98%; residual activity [26]: 100%; residual activity [27]: 100%; residual activity [28]: 100%; residual activity [29]: 65%; residual activity [30]: 100%; residual activity [31]: 100%; residual activity [32]: 100%; residual activity [33]: 100%; residual activity [34]: 81%; residual activity [35]: 100%; residual activity [36]: 100%; residual activity [37]: 100%; residual activity [38]: 100%; residual activity [39]: 100%; inhibition [40]: -8.42%
